Where no end group is shown, it is not given here.
Legend:
[1] = system: ischemic-injured porcine jejunum; experiment: Recovery of barrier function (transepithelial electrical resistance) in ischemic-injured porcine jejunum in Ussing chambers, with indomethacin; format: cell-based, Yorkshire-cross pigs; conditions: FIG. 1
Text: In order to determine whether Larazotide could function as a therapeutic agent that could stimulate intestinal tissue repair in the presence of a non-steroidal anti-inflammatory drug (NSAID), recovery of barrier function in ischemic-injured porcine jejunum was monitored in the presence of the NSAID indomethacin.
Specifically, Yorkshire-cross pigs of 6-8 weeks of age were anesthetized, followed by midline laparotomy and creation of a series of 10 cm intestinal loops commencing proximal to the ileum by ligating the intestinal lumen.
The local mesenteric vasculature was ligated to select treatment loops for a period of 45 minutes. Other loops were left as non-ischemic controls. The loops were subsequently resected, and the mucosal tissues were stripped in oxygenated (95% O2/5 % CO2) rings from the muscle layers in preparation of ex vivo incubation in Ussing chambers.
Select tissues (n=8) were pre-treated with indomethacin (5 μM) on both sides of the tissue, prior to receiving 0.1-10 μM Larazotide on the luminal surface after 30 minutes of incubation in the Ussing chambers.
Transepithelial electrical resistance (TER) was monitored in the tissues for 240 minutes.

[2] = clinical trials, cited from earlier work
tight junction = experiment: Tight junction regulator activity of larazotide fragments; conditions: for Activity of full length larazotide when mixed with the two fragments: GVLVQPG and VLVQPG mixed with full length larazotide; for Activity as tight junction regulators: fragment alone

Compound	Activity of full length larazotide when mixed with the two fragments (tight junction)	Activity as tight junction regulators (tight junction)	also measured
COc1ccc2c(c1)c(CC(=O)O)c(C)n2C(=O)c1ccc(Cl)cc1 [indomethacin]	–	–	Transepithelial electrical resistance (TER) ([1]; indomethacin applied without larazotide): decline in TER
GGVLVQPG [Larazotide]	–	–	Transepithelial electrical resistance (TER) ([1]; 1 μM larazotide on luminal surface, in the presence of indomethacin (5 μM), monitored for 240 minutes): increased TER; Clinical activity at higher doses ([2]; higher doses (e.g., 1 mg and 2 mg doses)): attenuation of activity, or no activity at all; Clinical benefit on intestinal disease symptoms ([2]; lower doses (e.g., 0.5 mg dose)): benefit at reducing intestinal disease symptoms
GVLVQPG [larazotide-derived fragment missing an N-terminal glycine residue]	activity is completely abolished	largely inactive	–
VLVQPG [larazotide-derived fragment missing N-terminal glycine residues]	activity is completely abolished	largely inactive	–

— patent US20210100868A1, “COMPOSITIONS AND METHODS FOR TREATING OR PREVENTING GASTROINTESTINAL DAMAGE ASSOCIATED WITH NSAID THERAPY” (NORTH CAROLINA STATE UNIVERSITY, priority 2018, published 2021)
